Assay results: PubChem BioAssay AID1963832 (Molecular Pharmacology Branch, DTP, NCI, 2024)

Test system: 885724-159-R-J1-PDC complex spheroid viability
Test: Anticancer human tumor 885724-159-R-J1-PDC patient-derived pancreatic adenocarcinoma cell line growth inhibition [POLQ]
Details: for IC50: curve of first compound; for viability, T/C: stronger effect = lower value; active = viability on the fitted dose curve at most 10% of control; inactive = the rest
In short: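 Three-cell-type spheroids modelling solid tumor plus stroma served as the readout system; POL inhibitors were tested individually and in combination, concentration ranges set by clinical Cmax where known.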
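Also: spheroids exposed to compounds for 7 days.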

C=CCn1c(=O)c2cnc(Nc3ccc(N4CCN(C)CC4)cc3)nc2n1-c1cccc(C(C)(C)O)n1 + COC1C(OC(N)=O)C(O)C(Oc2ccc3c(O)c(NC(=O)c4ccc(O)c(CC=C(C)C)c4)c(=O)oc3c2C)OC1(C)C
713 nM: IC50 (second compound 1 µM)
689 nM: IC50 (second compound 0.316 µM)
296 nM: IC50 (second compound 0.0316 µM)
532 nM: IC50 (second compound 0.1 µM)
631 nM: IC50 (second compound 10 µM)
697 nM: IC50 (second compound 3.16 µM)
inactive: viability, T/C (second compound 0.0316 µM, first compound 0.00316 µM) 87.8% | viability, T/C (second compound 0.0316 µM, first compound 0.01 µM) 109% | viability, T/C (second compound 0.0316 µM, first compound 0.0316 µM) 90.9% | viability, T/C (second compound 0.0316 µM, first compound 0.1 µM) 85.4% | viability, T/C (second compound 0.0316 µM, first compound 0.316 µM) 47.5% | viability, T/C (second compound 0.0316 µM, first compound 1 µM) 42.2% | viability, T/C (second compound 0.1 µM, first compound 0.00316 µM) 100% | viability, T/C (second compound 0.1 µM, first compound 0.01 µM) 99.7% | viability, T/C (second compound 0.1 µM, first compound 0.0316 µM) 96.5% | viability, T/C (second compound 0.1 µM, first compound 0.1 µM) 86.4% | viability, T/C (second compound 0.1 µM, first compound 0.316 µM) 54.4% | viability, T/C (second compound 0.1 µM, first compound 1 µM) 44.5% | viability, T/C (second compound 0.316 µM, first compound 0.00316 µM) 103% | viability, T/C (second compound 0.316 µM, first compound 0.01 µM) 100% | viability, T/C (second compound 0.316 µM, first compound 0.0316 µM) 93.2% | viability, T/C (second compound 0.316 µM, first compound 0.1 µM) 82.7% | viability, T/C (second compound 0.316 µM, first compound 0.316 µM) 52.7% | viability, T/C (second compound 0.316 µM, first compound 1 µM) 49% | viability, T/C (second compound 1 µM, first compound 0.00316 µM) 110% | viability, T/C (second compound 1 µM, first compound 0.01 µM) 93.8% | viability, T/C (second compound 1 µM, first compound 0.0316 µM) 89.7% | viability, T/C (second compound 1 µM, first compound 0.1 µM) 82.6% | viability, T/C (second compound 1 µM, first compound 0.316 µM) 55.1% | viability, T/C (second compound 1 µM, first compound 1 µM) 46.9% | viability, T/C (second compound 3.16 µM, first compound 0.00316 µM) 100% | viability, T/C (second compound 3.16 µM, first compound 0.01 µM) 88.3% | viability, T/C (second compound 3.16 µM, first compound 0.0316 µM) 90.1% | viability, T/C (second compound 3.16 µM, first compound 0.1 µM) 77.3% | viability, T/C (second compound 3.16 µM, first compound 0.316 µM) 57.4% | viability, T/C (second compound 3.16 µM, first compound 1 µM) 46.5% | viability, T/C (second compound 10 µM, first compound 0.00316 µM) 101% | viability, T/C (second compound 10 µM, first compound 0.01 µM) 90.2% | viability, T/C (second compound 10 µM, first compound 0.0316 µM) 97.2% | viability, T/C (second compound 10 µM, first compound 0.1 µM) 74.3% | viability, T/C (second compound 10 µM, first compound 0.316 µM) 58.6% | viability, T/C (second compound 10 µM, first compound 1 µM) 44.8%
